Test results taken from patent publication US20250304549A1, “HYDROXYAMIDE DERIVATIVE AND USE THEREOF” (SICHUAN HUIYU PHARMACEUTICAL CO., LTD., priority 2022, published 2025).
Where a name gives a salt, the structure may show the parent alone.

Legend:
DU145 cells = assay: In vitro cell inhibition assay - DU145 cell proliferation (CellTiter-Glo); format: cell-based
Protocol: 5. In Vitro Cell Inhibition Assay—DU145 Cell Proliferation
The inhibitory effect of the compounds on cell proliferation was assessed by detecting the number of viable cells using the CellTiter-Glo® reagent. DU145 cells in the logarithmic growth phase were collected and inoculated into transparent bottom 96-well plates at a density 1×10^3 cells per well with 100 μL medium, and incubated at 37° C., 5% CO2 overnight. The compounds were sequentially diluted in a 5-fold concentration gradient with DMSO to obtain 8 different concentrations. These were then diluted with RPMI-640 (containing 10% FBS) cell culture medium to obtain the compound working solution (2×), which was added to the cell supernatant at 100 μL per well. The incubation continued for 6 days at 37° C., 5% CO2. The plate was then removed and equilibrated at room temperature (25° C.) along with the CellTiter-Glo® mixing reagent for 10-30 minutes. After centrifugation, 120 μL of the culture medium was carefully aspirated from each well, and 60 μL of CellTiter-Glo® reagent was added. The cells were thoroughly mixed with the CellTiter-Glo® mixing reagent using a microplate shaker for 2 min. and then incubated at room temperature for 10 min. The 96-well plate was subsequently placed on a multifunctional microplate reader to record the Luminescence values (RLU).
The inhibition rate was calculated using the following formula: […]
Note: ‘Negative’ refers to the group without inhibitors; ‘Blank’ refers to the group without cells.
The IC50 value was determined by fitting the inhibition rate by GraphPad Prism software.

pan-HDAC = assay: In vitro enzyme inhibition assay - HDAC (HDAC-Glo I/II), pan-HDAC; format: biochemical
How it was run: (§1)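 Eight compound concentrations (5-fold gradient; 1 mM DMSO stock) were assayed by HDAC-Glo I/II luminescence. IC50 was obtained by four-parameter fitting.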

NCI-H69 cells = assay: In vitro cell inhibition assay - NCI-H69 cell proliferation (CellTiter-Glo); format: cell-based
How it was run: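 CellTiter-Glo luminescence measured viability after a 7-day, 37° C. exposure of NCI-H69 cells (1×10^3/well) to an 8-point, 5-fold dilution series in RPMI-640/20% FBS. Inhibition was normalised to untreated and cell-free wells and IC50 derived by curve fitting.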

NCI-H1417 cells = assay: In vitro cell inhibition assay - H1417 cell proliferation (CellTiter-Glo); format: cell-based
How it was run: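 Cells exposed to 8 compound concentrations (5-fold dilutions) in BEGM with 10% FBS for 7 days at 37° C., 5% CO2. Viable cells measured by CellTiter-Glo luminescence; inhibition versus no-inhibitor and no-cell controls, IC50 fitted.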

LSD1 = LSD1 (Homo sapiens (Human), UniProt O60341); assay: In vitro enzyme inhibition assay - LSD1 (HTRF); format: biochemical
HDAC8 = HDAC8 (Homo sapiens (Human), UniProt Q9BY41); assay: In vitro enzyme inhibition assay - HDAC (HDAC-Glo I/II), HDAC8; format: biochemical; settings: read-out: HDAC IC50 (nM) HDAC 8
Chain of HDAC8 (Q9BY41 whole entry): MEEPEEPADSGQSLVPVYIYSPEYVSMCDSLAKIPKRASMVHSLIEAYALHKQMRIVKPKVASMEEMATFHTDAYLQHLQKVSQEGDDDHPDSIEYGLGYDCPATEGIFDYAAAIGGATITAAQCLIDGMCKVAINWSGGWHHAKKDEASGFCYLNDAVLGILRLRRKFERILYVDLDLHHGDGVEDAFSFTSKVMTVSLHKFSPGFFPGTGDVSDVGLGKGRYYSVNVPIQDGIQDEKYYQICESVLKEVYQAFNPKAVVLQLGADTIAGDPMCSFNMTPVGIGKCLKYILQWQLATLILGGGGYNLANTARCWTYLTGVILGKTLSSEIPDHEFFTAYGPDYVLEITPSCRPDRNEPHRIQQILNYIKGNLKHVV
How it was run: as §1

[1] = Homo sapiens, DU-145, Du145 prostate cancer cell proliferation
[2] = Homo sapiens, NCI-H69, H69 small cell lung cancer cell proliferation
[3] = Homo sapiens, NCI-H1417, H1417 small cell lung cancer cell proliferation
[4] = Du145 prostate cancer cell proliferation
[5] = H69 small cell lung cancer cell proliferation
[6] = H1417 small cell lung cancer cell proliferation

| Structure (SMILES) | IC50 (DU145 cells; [1]) | IC50 (pan-HDAC) | IC50 (NCI-H69 cells; [2]) | IC50 (NCI-H1417 cells; [3]) | IC50 (LSD1) | IC50 (HDAC8) | IC50 (DU145 cells; [4]) | IC50 (NCI-H69 cells; [5]) | IC50 (NCI-H1417 cells; [6]) |
| --- | --- | --- | --- | --- | --- | --- | --- | --- | --- |
| COc1ccc(-c2c(OCCCCCCC(=O)NO)cc(N3CCC(N)CC3)nc2-c2ccc(C#N)c(F)c2)cc1 [Example 8, 7-[(6-(4-Aminopiperidin-1-yl)-2-(4-cyano-3-fluorophenyl)-3-(4-methoxyphenyl)pyridin-4-yl)oxy]-N-hydroxyheptanamide trifluoroacetate] | 2850 nM | 21.7 nM | 2530 nM | 501 nM | 18.6 nM |  |  |  |  |
| COc1ccc(-c2c(OCCCCCCC(=O)NO)cc(N3CCC(N)CC3)nc2-c2ccc(C#N)c(C)c2)cc1O [Example 16, 7-((6-(4-Aminopiperidin-1-yl)-2-(4-cyano-3-methylphenyl)-3-(3-hydroxy-4-methoxyphenyl)pyridin-4-yl)oxy)-N-hydroxyheptanamide hydrochloride] | 3700 nM | 4.23 nM | 3640 nM | > 1000 nM | 33.2 nM |  |  |  |  |
| COc1ccc(-c2c(-c3ccc(C#N)c(F)c3)nc(N3CCC(NCc4ccc(/C=C/C(=O)NO)cc4)CC3)n3ccnc23)cc1O [Example 70, (E)-3-(4-(((1-(7-(4-Cyano-3-fluorophenyl)-8-(3-hydroxy-4-methoxyphenyl)imidazo[1,2-c]pyrimidin-5-yl)piperidin-4-yl)amino)methyl)phenyl)-N-hydroxyacrylamide formate] | 262 nM | 76.6 nM | 214 nM | 1.44 nM | 1.18 nM | 26.5 nM |  |  |  |
| COc1ccc(-c2ccc(C(=O)N3CC[C@H](NCc4ccc(/C=C/C(=O)NO)cc4)C3)cc2-c2ccc(C#N)c(F)c2)cc1O [Example 72, (S,E)-3-(4-(((1-(4″-cyano-3″-fluoro-3-hydroxy-4-methoxy-[1,1′:2′,1″-terphenyl]-4′-carbonylpyrrolidin-3-yl)amino)methyl)phenyl)-N-hydroxyacrylamide formate] |  | 110 nM |  |  | 8.42 nM | 160 nM | 2750 nM | 970 nM | 166 nM |
| COc1ccc(-c2cnc(N3CCC(Nc4ncc(C(=O)NO)cn4)CC3)c(C#N)c2-c2ccc(C#N)c(F)c2)cc1O [Example 83, 2-((1-(3-Cyano-4-(4-cyano-3-fluorophenyl)-5-(3-hydroxy-4-methoxyphenyl)pyridin-2-yl)piperidin-4-yl)amino)-N-hydroxypyrimidine-5-carboxamide formate] | 2820 nM | 438 nM | 1140 nM | 76.8 nM | 8.51 nM | 374 nM |  |  |  |
| COc1ccc(-c2cnc(N3CCC(N)(c4ccc(/C=C/C(=O)NO)cc4)CC3)c(C#N)c2-c2ccc(C#N)c(F)c2)cc1O [Example 85, (E)-3-(4-(4-amino-1-(3-cyano-4-(4-cyano-3-fluorophenyl)-5-(3-hydroxy-4-methoxyphenyl)pyridin-2-yl))piperidin-4-yl)phenyl)-N-hydroxyacrylamide formate] |  | 110 nM |  |  | 209 nM | 542 nM | 1550 nM | 407 nM | 256 nM |
| COc1cc(-c2cnc(N3CCC(NCCc4cccc(/C=C/C(=O)NO)c4)CC3)c(C#N)c2-c2ccc(C#N)c(F)c2)ccc1O [Example 92, (E)-3-(3-(2-(1-(3-Cyano-4-(4-cyano-3-fluorophenyl)-5-(4-hydroxy-3-methoxyphenyl)pyridin-2-yl)piperidin-4-yl)amino)ethyl) phenyl)-N-hydroxyacrylamide formate] | 2370 nM | 340 nM | 497 nM | 63 nM | 1.41 nM | 623 nM |  |  |  |
| COc1cc(-c2cnc(N3CC4CC3CC4NCc3ccc(/C=C/C(=O)NO)cc3)c(C#N)c2-c2ccc(C#N)c(F)c2)ccc1O (centres unmarked) [Example 94, (E)-3-(4-(2-(3-Cyano-4-(4-cyano-3-fluorophenyl)-5-(4-hydroxy-3-methoxyphenyl)pyridin-2-yl)-2-azabicyclo[2.2.1]heptan-5-yl)amino)methyl) phenyl)-N-hydroxyacrylamide formate] |  | 110 nM |  |  | 173 nM | 256 nM | 495 nM | 190 nM | 160 nM |
| COc1cc(-c2cnc(N3CCC(NCc4ccc(/C=C/C(=O)NO)cn4)CC3)c(C#N)c2-c2ccc(C#N)c(F)c2)ccc1O [Example 95, (E)-3-(6-((1-(3-Cyano-4-(4-cyano-3-fluorophenyl)-5-(4-hydroxy-3-methoxyphenyl)pyridin-2-yl)piperidin-4-yl)amino)methyl) pyridin-3-yl)-N-hydroxyacrylamide formate] | 628 nM | 49 nM | 304 nM | 335 nM | 63.6 nM | 87.2 nM |  |  |  |

More lines, in order of falling IC50 (pan-HDAC), values ahead:

| IC50 (DU145 cells; [1]) | IC50 (pan-HDAC) | IC50 (NCI-H69 cells; [2]) | IC50 (NCI-H1417 cells; [3]) | IC50 (LSD1) | IC50 (HDAC8) | IC50 (DU145 cells; [4]) | IC50 (NCI-H69 cells; [5]) | IC50 (NCI-H1417 cells; [6]) | Structure (SMILES) |
| --- | --- | --- | --- | --- | --- | --- | --- | --- | --- |
| 776 nM | 1220 nM | 516 nM | 73.9 nM | 140 nM | 695 nM |  |  |  | COc1ccc(-c2cnc(N3CCC(Nc4cccc(/C=C/C(=O)NO)c4)CC3)c(C#N)c2-c2ccc(C#N)c(F)c2)cc1O [Example 81, (E)-3-(3-((1-(3-cyano-4-(4-cyano-3-fluorophenyl)-5-(3-hydroxy-4-methoxyphenyl)pyridin-2-yl)piperidin-4-yl)amino)phenyl)-N-hydroxyacrylamide formate] |
| 2230 nM | 186 nM | 678 nM | 125 nM | 21.2 nM | 152 nM |  |  |  | COc1cc(-c2ccc(C(=O)N3CC[C@H](NCc4ccc(/C=C/C(=O)NO)cc4)C3)cc2-c2ccc(C#N)c(F)c2)ccc1O [Example 73, (S,E)-3-(4-(((1-(4″-Cyano-3″-fluoro-4-hydroxy-3-methoxy-[1,1]: 2′,1″-terphenyl]-4′-carbonyl)pyrrolidin-3-yl)amino)methyl)phenyl)-N-hydroxyacrylamide formate] |
| 677 nM | 76.6 nM | 403 nM | 473 nM | 129 nM | 212 nM |  |  |  | COc1cc(-c2ccc(CN3CC[C@H](NCc4ccc(/C=C/C(=O)NO)cc4)C3)cc2-c2ccc(C#N)c(F)c2)ccc1O [Example 75, (S,E)-3-(4-(((1-((4″-Cyano-3″-fluoro-4-hydroxy-3-methoxy-[1,1:2,1″-terphenyl]-4′-yl)methyl)pyrrolidin-3-yl)amino)methyl)phenyl)-N-hydroxyacrylamide formate] |
|  | 51.8 nM |  |  | 4.61 nM | 125 nM | 431 nM | 99 nM | 42.3 nM | COc1ccc(-c2cnc(N3CCC(NCc4ccc(/C=C/C(=O)NO)cc4)CC3)nc2-c2ccc(C#N)c(F)c2)cc1O [Example 71, (E)-3-(4-(((1-(4-(4-cyano-3-fluorophenyl)-5-(3-hydroxy-4-methoxyphenyl)pyrimidin-2-yl)piperidin-4-yl)amino)methyl)-N-hydroxyacrylamide formate] |
| 2960 nM | 41.3 nM | 2540 nM | 762 nM | 36 nM |  |  |  |  | Cc1ccc(-c2c(OCCCCCCC(=O)NO)cc(N3CCC(N)CC3)nc2-c2ccc(C#N)c(F)c2)cc1 [Example 7, 7-[(6-(4-Aminopiperidin-1-yl)-2-(4-cyano-3-fluorophenyl)-3-(4-methylphenyl)pyridin-4-yl)oxy]-N-hydroxyheptanamide-hydrochloride] |
|  | 23.1 nM |  |  | 2.26 nM | 207 nM | 553 nM | 205 nM | 40.1 nM | COc1ccc(-c2ccc(CN3CC[C@H](NCc4ccc(/C=C/C(=O)NO)cc4)C3)cc2-c2ccc(C#N)c(F)c2)cc1O [Example 74, (S,E)-3-(4-(((1-((4″-cyano-3″-fluoro-3-hydroxy-4-methoxy-[1,1:2′,1″-terphenyl]-4′-yl)methyl)pyrrolidin-3-yl)amino)methyl)phenyl)-N-hydroxyacrylamide formate] |
| 2770 nM | 3.32 nM | 775 nM | 332 nM | 1.95 nM |  |  |  |  | CN(C)c1ncc(-c2c(OCCCCCCC(=O)NO)cc(N3CCC(N)CC3)nc2-c2ccc(C#N)c(F)c2)cn1 [Example 13, 7-((6-(4-Aminopiperidin-1-yl)-2-(4-cyano-3-fluorophenyl)-3-(2-(dimethylamino)pyrimidin-5-yl)pyridin-4-yl)oxy)-N-hydroxyheptanamide formate] |
